Like-named read-outs stand apart in the source and are kept apart here. A value given as a limit tells only on which side of the number the result lay.

Series [1] relates to Herpes Simplex Virus Type 2 (HSV-2). The series is described as follows: CPE inhibition assay in MRC-5 cells, HSV-2. Type of series: cell-based.
The conditions of series [2]: mice; doses up to 1 g/kg body weight; cited from earlier work.
Series [3] has as its system Human Hepatitis B Virus (HBV). The experiment in a line: HBV DNA copies in HepG2.2.15 culture medium by Lightcycler real-time PCR. Type of series: cell-based. Particulars: for Antiviral effect on HBV (HBV DNA copies): HepG2.2.15, 9 days.
Method: HepG2.2.15 cells, a cell line that was stably transfected with HBV genome, were cultured in RPMI-1640 with fetal bovine serum at either 2 or 4% final concentration and with no antibiotics. The cells were seeded in a 96-well plate at a density of 2×10^4 cells/well and grown overnight. […] Triplicate samples were measured for each concentration. The cells were incubated at 37° C. for 9 days. Drug/medium was changed daily. On day 9, the culture media containing released HBV virions were harvested and used to extract HBV DNA.
HBV DNA from drug-treated HepG2.2.15 cell culture media was extracted using QIAmp DNA mini kit—blood and body fluid spin column according to manufacturer's instructions. Briefly, 10 μl of QIAGEN proteinase K was added to 1.5 ml Eppendorf tube. 50 μl cell supernatant and 50 μl AL buffer were added to the tube. The samples were incubated at 56° C. water bath for 3 h. At the end of incubation, 50 μl ethanol was added to the sample. The mixture was transferred to a QIAamp spin column and centrifuged at 14000 rpm for 1 min. The filtrate was discarded. 50 μl Buffer AW1 was then added to the column and centrifuged at 14000 rpm for 1 min. Following washing and recentrifugation, DNA was eluted in 50 μl dH2O.
HBV DNA was detected by real-time PCR using Lightcycler assay. The reaction was performed in 20 μl, comprising the following: 6.4/4.8 μl dH2O, 2 μl 25 mM MgCl2, 1 μl 10 μM sense primer, 1 μl 10 μM antisense primer, 8/1.6 μl LightCycler Probe (fluorescein-labeled, 5 μM), 0.8/1.6 μl LightCycler Probe 2 (LC Red 640-labeled, 10 μM), 2 μl LC FastStart DNA Master Hyb Probes, 1 μl uracil DNA glycosylase.
PCR mix was aliquoted into glass capillaries and 5 μl DNA template was then added to the PCR mix. A range of HBV plasmid DNA (1×10^8, 1×10^7, 1×10^6, . . . , 1×10^2, 25 copies) was used as standards for quantitative analysis.
The antiviral effects of the test compounds were calculated using DNA copy numbers as an endpoint. Specifically, the antiviral activities were calculated based on the following formula: Antiviral effect=(Ccontrol−Ctest)/Ccontrol whereby the Ccontrol is the HBV DNA copies in the control wells (without drug); the Ctest is the HBV DNA copies in the test wells with a given concentration of a test compound.
The enhancing or antagonistic effect was analyzed mathematically using the median effect equation (Chou and Talalay, 1984) by computer software CalcuSyn (Biosoft, St. Louis).
Series [4] deals with Vesticular Stomatitis Virus (VSV). Type of series: cell-based. Particulars: MRC-5; for Anti-viral activity (protection of CPE) / viral activity, VSV: vitamin B12 = hydroxocobalamin (HC).
The conditions of series [5]: rabbits; doses up to 100 mg/kg body weight; cited from earlier work.
Series [6] relates to ND4 mouse model. The experiment in a line: Clinical signs in the ND4 demyelinating transgenic mouse model. The format is in vivo. Particulars: ND4 mice; for mean clinical scores / clinical signs (FIG. 5): intraperitoneal, paclitaxel alone 20 mg/kg once a week, vitamin B12 10 mg/kg once a week, combination with paclitaxel 5 mg/kg three times per week. From the text:
In this model, the severity of the clinical signs increased until a maximum around 6 months with animals dying around 8 to 9 months of age. Clinical signs assessed included general shaking, seizures, head jerk, hind limb and tail shiver, wobbly gait and limp tail. The scale of zero (absence) to four (constant and uncontrollable movements) was used for each of the clinical signs.
All treatments began when the mice reached 3 months of age at which time signs of demyelinating disease were evident. Treatment was stopped at time of sacrifice.
Treatment was started when the animals were 3 months of age and continued for 11 weeks. The animals were evaluated twice a week for clinical signs and the scores were averaged on a weekly basis. Refer to example 1 for more experimental details.
The severity of the clinical signs increase until a maximum around 6 months with animals dying around 8 to 9 months of age. Clinical signs assessed include general shaking, seizures, head jerk, hind limb and tail shiver, wobbly gait and limp tail. The scale of zero (absence) to four (constant and uncontrollable movements) was used for each of the clinical signs.
Mice (4 animals per group) were treated with vitamin B12 (cyanocobalamin) alone at a dose of 15 mg/kg, weekly and in combination with P-16. P-16 was administered alone and in combination with vitamin B12 at a dose of 1 mg/kg, tri-weekly. All treatments began when the mice reached 3 months of age at which time signs of demyelinating disease were evident. Treatment was stopped at time of sacrifice.
The ND4 transgenic mice received one of the following treatments through intraperitoneal injections: 1) paclitaxel (TAXOL®) at a dose of 20 mg/kg once a week; 2) vitamin B12 at a dose of 10 mg/kg once a week and paclitaxel (TAXOL®) at a dose of 5 mg/kg three times per week; and 3) vitamin B12 at a dose of 10 mg/kg once a week. All treatments started when the mice reached 3 months of age, at which time signs of demyelinating disease were evident.

In series [7] the test system is Mouse ascite astrocytoma cells. Particulars: overnight, no treatment 0.8955.
Method: Mouse ascite astrocytoma cells were seeded in a 96-well plate and grown to 60% confluence in standard growth conditions.
96® AQueous One Solution Cell Proliferation Assay was used as a colorimetric method for determining the number of viable cells in proliferations. […] 96® AQueous One Solution Reagent directly to culture wells, incubating for 1-4 hours and then recording absorbance at 490 nm with a 96 well plate reader. The quantity of formazan product as measured by the amount of 490 nm absorbance is known in the art to be directly proportional to the number of living cells in the culture.
The subject of series [8] is GFAP. The experiment in a line: GFAP in brain of ND4 mice (immunohistochemistry, slot blot of homogenates). The format is in vivo, mouse. The note with it: Vitamin B12 15 mg/kg, Normal 1.0, untreated ND4 4.4.
From the text: After the various treatments, the mice were sacrificed and brain sections removed for GFAP staining and quantitation. The brain region of hippocampus, adjacent to the dentate gyrus was fixed in formalin, paraffin-embedded and sectioned at 5 μm. Immunohistochemistry with anti-GFAP antibody was used to stain for GFAP. Glial fibrillary acidic protein was a protein expressed by astrocytes (particularly reactive astrocytes) and was used as a marker for these cells.
In addition, quantification of GFAP within the brains of normal, ND4 untreated and ND4 treated mice was carried out to provide a more precise level of protein expression. Whole brain homogenates were assayed for GFAP by slot blot. Brains were homogenized in a buffer containing 50 mM Tris-HCl pH 7.6, 0.5 mM DTT, 1 mM EDTA, and 0.43 mM PMSF. The homogenate was centrifuged at 11000 rpm for 30 min at 4° C. The pellet was isolated and resuspended in a buffer containing 10 mM sodium phosphate pH 7.5, 2 mM DTT, 6 mM urea and 1 mM EDTA. Samples were loaded onto the slot blot apparatus (BioDot, Biorad) under vacuum. The blots were reacted with anti-GFAP antibodies and then a secondary antibody. The blots were developed and the relative amounts of each band quantified.
The subject of series [9] is GFAP. The experiment in a line: GFAP in brain of EAE mice (immunohistochemistry, slot blot of homogenates). Type of series: in vivo, mouse.
Method: EAE mice were treated as described previously in Example 2. After the various treatments, the mice were sacrificed and brain sections removed for GFAP staining and quantitation. The brain region of hippocampus, adjacent to the dentate gyrus was fixed in formalin, paraffin-embedded and sectioned at 5 μm. Immunohistochemistry with anti-GFAP antibody was used to stain for GFAP.
In addition, quantification of GFAP within the brains of normal, EAE untreated and EAE treated mice was carried out to provide a more precise level of protein expression. Whole brain homogenates were assayed for GFAP by slot blot. Brains were homogenized in a buffer containing 50 mM Tris-HCl pH 7.6, 0.5 mM DTT, 1 mM EDTA, and 0.43 mM PMSF. The homogenate was centrifuged at 11000 rpm for 30 min at 4° C. The pellet was isolated and resuspended in a buffer containing 10 mM sodium phosphate pH 7.5, 2 mM DTT, 6 mM urea and 1 mM EDTA. Samples were loaded onto the slot blot apparatus (BioDot, Biorad) under vacuum. The blots were reacted with anti-GFAP antibodies and then a secondary antibody. The blots were developed and the relative amounts of each band quantified.
The nature of series [10]: Toxicity in the applicant's animal studies. Type of series: in vivo. The note with it: concentrations of 15 mg/kg of vitamin B12 in mice.
The mark [11] stands for this setting: HC 1 μg/ml, fraction (ODTest−OD0)/(ODControl−OD0).
Where [12] appears, read: Vitamin B12 (methylcobalamin) 25 μg/ml.

As to `C/C1=C2/[N-][C@H]([C@H](CC(N)=O)[C@@]2(C)CCC(=O)NC[C@@H](C)OP(=O)([O-])O[C@H]2[C@@H](O)[C@@H](n3cnc4cc(C)c(C)cc43)O[C@@H]2CO)[C@]2(C)N=C(/C(C)=C3N=C(/C=C4N=C1[C@@H](CCC(N)=O)C\4(C)C)[C@@H](CCC(N)=O)[C@]\3(C)CC(N)=O)[C@@H](CCC(N)=O)[C@]2(C)CC(N)=O.[Co+3].[OH-]` [HC, hydroxocobalamin], the “Antiviral effect on HSV-2 (CPE inhibition)” value in [1] (setting [11]) is 0.014; in series [1] (HC 10 μg/ml, fraction), 0.032; in series [1] (HC 100 μg/ml, fraction), 0.056; in series [1] (HC 500 μg/ml, fraction), 0.166; in [1] (HC 1000 μg/ml, fraction), 0.210. Moreover, the acute toxicity entry in [2] and in series [5] was “no toxicities were observed” each time. The “Antiviral effect on HBV (HBV DNA copies)” value in series [3] (HC 1 μg/ml, fraction (Ccontrol−Ctest)/Ccontrol) came out at 0.001; in series [3] (HC 10 μg/ml, fraction), 0.001; in series [3] (HC 100 μg/ml, fraction), 0.001; in series [3] (HC 500 μg/ml, fraction), 0.112. Further, the “Antiviral effect on VSV (CPE inhibition)” value in series [4] (setting [11]) is no more than 0.001; in series [4] (HC 10 μg/ml, fraction) it was no more than 0.001; in series [4] (HC 100 μg/ml, fraction) it was 0.039; in series [4] (HC 500 μg/ml, fraction), no more than 0.001; in [4] (HC 1000 μg/ml, fraction), 0.002.
Regarding `CC(=O)O[C@H]1C(=O)[C@@]2(C)[C@H]([C@H](OC(=O)c3ccccc3)[C@]3(O)C[C@H](OC(=O)[C@H](O)[C@@H](NC(=O)c4ccccc4)c4ccccc4)C(C)=C1C3(C)C)[C@]1(OC(C)=O)CO[C@@H]1C[C@@H]2O` [paclitaxel], the “mean clinical scores / clinical signs (FIG. 5)” value in series [6] is recorded as “significant attenuation of mean clinical scores”.
Regarding `C/C1=C2/[N-][C@H]([C@H](CC(N)=O)[C@@]2(C)CCC(=O)NC[C@H](C)OP(=O)([O-])O[C@H]2[C@@H](O)[C@@H](n3cnc4cc(C)c(C)cc43)O[C@@H]2CO)[C@]2(C)N=C(/C(C)=C3N=C(/C=C4N=C1[C@@H](CCC(N)=O)C\4(C)C)[C@@H](CCC(N)=O)[C@]\3(C)CC(N)=O)[C@@H](CCC(N)=O)[C@]2(C)CC(N)=O.[CH3-].[Co+3]` [vitamin B12 (methylcobalamin), methylcobalamin], the “Measure of Proliferative Activity (Absorbance at 490 nm)” value (from here on “Measure of Proliferative Activity”) in series [7] (setting [12]) is on record as “decrease in proliferative activity”.
“CSTMMSRSHKTRSHHV (Synthetically generated peptide) [P-16]”: the “clinical signs of MS (FIG. 3)” value in series [6] (P-16 1 mg/kg tri-weekly, vitamin B12 (cyanocobalamin) 15 mg/kg weekly) was “attenuation of clinical signs”.
Take cyanocobalamin [Vitamin B12]: the “Relative Amount of GFAP (+/−SD)” value in series [8] is 2.8 +/− 0.1; in series [9] (EAE brain homogenates, Vitamin B12 15 mg/kg, Normal 1.0, untreated EAE 4.2) it was 4.2 +/− 0.2. Moreover, the “levels of activated astrocytes and levels of GFAP” value in [9] (EAE mice treated as in Example 2) was “not effective in decreasing the levels of GFAP”. The “Measure of Proliferative Activity” value in series [7] (setting [12]) was found to be 0.2985. Further, the “mean clinical scores / clinical signs (FIG. 5)” value in [6] is given as “significant attenuation of mean clinical scores”. Further, in [6] (vitamin B12 (cyanocobalamin) 15 mg/kg weekly, interferon-beta 1a 5000 IU tri-weekly, from 3 months of age), the “clinical signs of MS (FIG. 1)” value is reported as “attenuation of clinical signs”. For the same molecule, the “viral activity (HBV)” value in series [3] (HepG2.2.15, vitamin B12 = hydroxocobalamin (HC)) is given as “not”. In addition, the “Anti-viral activity (protection of CPE) / viral activity, VSV” value in [4] was “significantly increased”. For the same molecule, in series [10], the toxicity in animals result is listed as “no toxicity has been found”.
In the case of interferon-alpha, the “Antiviral effect on HSV-2 (CPE inhibition)” value in series [1] (interferon 5 IU/ml, fraction) is listed as 0.093; in series [1] (interferon 10 IU/ml, fraction), 0.139; in [1] (interferon 50 IU/ml, fraction), 0.218; in [1] (interferon 100 IU/ml, fraction) it was 0.282; in series [1] (interferon 500 IU/ml, fraction) it was 0.271. In [4], the “Anti-viral activity (protection of CPE) / viral activity, VSV” value is listed as “significantly increased”. The “Antiviral effect on VSV (CPE inhibition)” value in [4] (interferon 5 IU/ml, fraction) was 0.296; in series [4] (interferon 10 IU/ml, fraction) it was 0.387; in series [4] (interferon 50 IU/ml, fraction) it was 0.950; in series [4] (interferon 100 IU/ml, fraction), 0.996; in series [4] (interferon 500 IU/ml, fraction) it was 0.942.

B1: Mouse Interferon-beta: mouse interferon-beta used on mouse astrocytoma cells (protein, UniProt P01575 22-182, looked up)
Interferon beta: INYKQLQLQERTNIRKCQELLEQLNGKINLTYRADFKIPMEMTEKMQKSYTAFAIQEMLQNVFLVFRNNFSSTGWNETIVVRLLDELHQQTVFLKTVLEEKQEERLTWEMSSTALHLKSYYWRVQRYLKLMKYNSYAWMVVRAEIFRNFLIIRRLTRNFQN
Regarding B1, the “Measure of Proliferative Activity” value in series [7] (Mouse Interferon-beta 500 IU/ml) is 0.3855; in [7] (Mouse Interferon-beta 500 IU/ml, listed as mice interferon-beta), “decrease in proliferative activity”.

Source of the values: patent US6894033B2, “Combination therapies using vitamin B12 and therapeutic agents for treatment of viral, proliferative and inflammatory diseases” (Transition Therapeutics Inc., priority 2001, dated 2005).
